ChEMBL document CHEMBL1201862, “PubChem BioAssay data set” (2004)
Active and inactive are the calls of the source. Rule as the data show it: actives have a measured EC50 and inactives only a lower limit.

Target: T1, Heat shock factor protein 1 (Mus musculus, UniProt P38532)
T1 sequence (P38532 whole entry): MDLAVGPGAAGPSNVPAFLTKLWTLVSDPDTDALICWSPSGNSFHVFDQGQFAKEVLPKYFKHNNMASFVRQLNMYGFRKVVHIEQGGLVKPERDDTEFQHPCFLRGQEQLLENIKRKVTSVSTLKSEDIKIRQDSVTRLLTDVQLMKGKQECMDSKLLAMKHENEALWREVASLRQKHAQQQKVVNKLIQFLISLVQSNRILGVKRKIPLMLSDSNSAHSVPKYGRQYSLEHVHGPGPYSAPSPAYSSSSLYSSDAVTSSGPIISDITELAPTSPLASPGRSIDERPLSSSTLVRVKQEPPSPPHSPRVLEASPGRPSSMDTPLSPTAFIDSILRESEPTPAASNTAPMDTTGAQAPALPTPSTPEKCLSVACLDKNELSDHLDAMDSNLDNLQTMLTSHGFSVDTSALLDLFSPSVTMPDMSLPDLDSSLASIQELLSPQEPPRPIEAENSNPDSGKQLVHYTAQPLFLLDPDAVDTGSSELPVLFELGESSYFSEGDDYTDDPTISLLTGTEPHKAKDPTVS
Assay: decrease of HSF1-responsive luciferase luminescence – cell-based, NIH3T3, dose retest, confirmation (AID 2382);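 also: NIH3T3 fibroblasts with HSF1-driven luciferase reporter stressed by proteasome inhibitor MG132; luminescence from HSF1-driven luciferase expression after 8 hours of MG132 stress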
Format: functional

SMILES | EC50
Cn1c(-c2nonc2N)nc2ccccc21 | > 195 µM (not active)
CCc1ccccc1NC(=O)CSc1nnc(-c2ccncc2)o1 | > 195 µM (not active)
Cc1cc(=O)[nH]c2c1c(=O)[nH]n2C1CC(C)N(C)CC1C (stereo not given) | > 195 µM (not active)
CC(=O)C1=C(O)C(=O)N(c2ccc(C)cc2)C1c1ccccn1 (stereo not given) | > 195 µM (not active)
COC(=O)c1c[nH]nc1N=C(S)Nc1ccc(Cl)c(Cl)c1 | 0.249 µM (active)
COc1ccc(N2CC(C(=O)Nc3nnc(C4CCCCC4)s3)CC2=O)cc1 (stereo not given) | > 195 µM (not active)
CC(NC(=O)c1ccc2c(c1)OCO2)c1ccccc1 (stereo not given) | > 195 µM (not active)
CCN1CCN(C(=O)C2CCN(C(=O)c3cc4sccc4n3CC)CC2)CC1 | > 195 µM (not active)
CCCC(=O)Nc1ccc(Cl)c(NC(=O)c2cccnc2)c1 | > 195 µM (not active)
CCOC(=O)c1c(C)[nH]c(C(=O)COC(=O)C2=NNC(=O)CC2)c1C | > 195 µM (not active)
CCOc1ccc(CNCCCSc2ncccn2)cc1OC | > 195 µM (not active)
CCCS(=O)(=O)N1CCc2cc(OC)c(OC)cc2C1 | > 195 µM (not active)
CCC(=O)N1C(C(=O)N2CCCC2)CSC1c1ccc(OC)cc1 (stereo not given) | 32.2 µM (active)
O=C(NCc1ccncc1)c1ccc(Cl)c(S(=O)(=O)N2CCOCC2)c1 | > 195 µM (not active)
CCN(Cc1ccc2c(c1)OCO2)C(=O)/C=C/c1cccc(Br)c1 | > 195 µM (not active)
O=C(Nc1ccc(F)cc1)c1ccc(O)nn1 | > 195 µM (not active)
CSc1nsc(SCC(=O)NCc2ccc(C)cc2)n1 | > 195 µM (not active)
CCOC(=O)Cc1cc(O)c2cc(C)ccc2n1 | 86.1 µM (active)
O=C(Nc1ccc(-n2ccnc2P(=O)(O)c2ccccc2)cc1)c1ccccc1Cl | > 195 µM (not active)
CCCC1=Nc2cc(C(=O)NCCCN3CCN(C)CC3)ccc2Sc2ccccc21 | > 195 µM (not active)

SMILES | EC50
COc1cc(OC)cc(C(=O)N2CCN(S(C)(=O)=O)CC2)c1 | > 195 µM (not active)
Nc1nonc1-c1noc(-c2ccccc2Br)n1 | > 195 µM (not active)
CCCCOc1ccc(C2C(=O)N(C3CCCCC3)CC(=O)N2CC2CCCO2)cc1 (stereo not given) | > 195 µM (not active)
CCC(Sc1nc2cc(OC)c(OC)cc2c(=O)n1CCc1ccc(S(N)(=O)=O)cc1)C(=O)NCCOC (stereo not given) | > 195 µM (not active)
COc1ccccc1-n1ccnc(SCC(=O)NCc2ccccc2)c1=O | > 195 µM (not active)
Cc1nnc(N2C(=O)c3cccc4cccc(c34)C2=O)s1 | > 195 µM (not active)
COc1ccc(Nc2nc(C)cc(C)c2C#N)cc1OC | > 195 µM (not active)
CN(Cc1ccccc1)C(=O)CCS(=O)(=O)c1ccc2c(c1)n(C)c(=O)c(=O)n2C | > 195 µM (not active)
CC(=O)Nc1cccc(C(=O)/C=C/c2ccc(C)cc2)c1 | > 195 µM (not active)
CCn1c(=O)n(CC)c2cc(N3CCCC3)c(NC(=O)c3ccc(OC)c(Br)c3)cc21 | > 195 µM (not active)
Cc1ccc(C)c(N2CCN(CCN3CCCCC3)CC2)c1 | > 195 µM (not active)
COc1ccc(C(=O)C2CCCN(Cc3ccc(NC(C)=O)cc3)C2)cc1OC (stereo not given) | 60.1 µM (active)
CC1=C(C(=O)Nc2ccccc2)C(c2cc(CN3CCOCC3)cs2)C2=C(O)CCCC2=N1 (stereo not given) | > 195 µM (not active)
CCCC(C)NC(=O)C1c2ccccc2Oc2ccccc21 (stereo not given) | > 195 µM (not active)
Nc1ccc2oc(C3CCCCC3)nc2c1 | > 195 µM (not active)
CC(C)CCc1c(O)nc(SCC(=O)N2CCCCCC2)nc1O | > 195 µM (not active)
c1ccc(Cc2nc3ccccc3o2)cc1 | > 195 µM (not active)
O=[N+]([O-])c1ccc(/N=C/c2sc3ccccc3c2O)cc1 | > 195 µM (not active)
O=C(N/N=C/c1ccc(Br)o1)c1ccc2c(c1)OCCO2 | > 195 µM (not active)
Cn1c(C(C#N)C(=O)c2sc3ccccc3c2Cl)nc2ccccc21 (stereo not given) | > 195 µM (not active)
